The record followed here is patent US9221795B2, “Phosphatidylinositol 3-kinase inhibitors” (Gilead Sciences, Inc., priority 2013, dated 2015).

One data set concerns the target PI3Kδ (Homo sapiens (Human), UniProt O00329). The data set can be described thus: Enzymatic activity of PI3K isoforms, TR-FRET assay (PI3Kδ). The class given is biochemical. Particulars: 2× Km ATP, geometric mean if more than one value. The method, then: Enzymatic activity of the class I PI3K isoforms in the presence of the compounds of Table 1 and Compounds X, Y and Z was measured using a time-resolved fluorescence resonance energy transfer (TR-FRET) assay. The TR-FRET assay was used to monitor formation of the product 3,4,5-inositol triphosphate molecule (PIP3) as it competed with fluorescently labeled PIP3 for binding to the GRP-1 pleckstrin homology domain protein. An increase in […] product results in a decrease in TR-FRET signal as the labeled fluorophore is displaced from the GRP-1 protein binding site.
Class I PI3K isoforms were expressed and purified as heterodimeric recombinant proteins. All assay reagents and buffers for the TR-FRET assay were purchased from Millipore. PI3K isoforms were assayed under initial rate conditions in the presence of 25 mM Hepes (pH 7.4), and 2× Km ATP (75-500 μM), 2 μM PIP2, 5% glycerol, 5 mM MgCl2, 50 mM NaCl, 0.05% (v/v) Chaps, 1 mM dithiothreitol, 1% (v/v) DMSO at the following concentrations for each isoforms: PI3Kα, PI3Kβ, and PI3Kδ between 25 and 50 pM, and PI3Kγ at 2 nM. After an assay reaction time of 30 minutes at 25° C., reactions were terminated with a final concentration of 10 mM EDTA, 10 nM labeled-PIP3, and 35 nM Europium labeled GRP-1 detector protein before reading TR-FRET on an Envision plate reader (Ex: 340 nm; Em: 615/665 nm; […] delay and 500 μs read window).
Data were normalized based on positive ([…] wortmanin) and negative (DMSO) controls. α, β, δ, and γ IC50 values were calculated from the fit of the dose-response curves to a four-parameter equation. All IC50 values represent geometric mean values if more than one value was obtained. IC50 values were reported in units of nM.
(In general: Time-resolved FRET reads energy transfer from a long-lived donor to a nearby acceptor.)

The next data set has as its system basophils. The data set can be described thus: Basophil activation in human whole blood (Flow2 CAST kit, CD63 flow cytometry). It is filed as cell-based. The following applies: human whole blood, basophils activated with anti-FcεRI mAb or fMLP, percent CD63 positive cells. How it is done:
Effect on basophil activation was measured in human whole blood using the Flow2 CAST® kit (Buhlmann Laboratories AG, Baselstrasse, Switzerland) following the protocol provided by the manufacturer with minor modifications. Human whole blood was collected into K2-EDTA venipuncture tubes. Whole blood samples were treated with either DMSO (0.3% final) or a serial dilution of compounds in DMSO for 60 minutes at 37° C. Basophils were then activated either with anti-FcεRI mAb or with fMLP. To activate basophils using the anti-FcεRI mAb; 50 μL of whole blood was mixed with 110 μL of stimulation buffer (B-BAT-STB) and 20 μl of anti-FcεRI (B-BAT-STCON). To activate basophils with fMLP; 50 μL of whole blood was mixed with 80 μL of stimulation buffer (B-BAT-STB) and 50 μL of fMLP (B-CCR-FMLP). Stimulation buffer was used as a negative control. 20 μL of the staining reagent (combination of anti-human CD63-FITC and anti-human CCR3-PE mAbs) was then added to each tube. The tubes were mixed gently and incubated for 25 minutes at 37° C. Subsequently, erythrocytes were lysed and fixed by the addition of 2 mL of lysing solution (B-BAT-LYR) for 10 minutes at room temperature. Cells were pelleted by centrifugation at 1200 rpm for 10 minutes at room temperature in a swing-out rotor. Supernatant was aspirated and cell pellet resuspended in 400 μL of wash buffer. Flow cytometric analysis of the basophil activation was performed on a FC500MPL flow cytometer (Beckman Coulter Inc., Fullerton, Calif.). CCR3-staining and side scatter were applied to gate at least 200 basophils that expressed a high density of CCR3. The percent CD63 positive cells within the gated basophil population were determined in different treatment groups and normalized to the vehicle control (0.3% DMSO) with anti-FcεRI mAb of fMLP stimulus as 100%. Final compound concentration was adjusted to correct for dilution effect of added reagents. The EC50 values were calculated from the analysis of the dose-response curves to a four-parameter equation.
For orientation: Flow cytometry measures light scatter and fluorescence of single cells or particles in a stream.

A short description of data set [1]: Hepatocyte stability (parent drug disappearance in cryopreserved hepatocytes). The class given is in vitro ADME, human. The following applies: human, cryopreserved human hepatocytes, human hepatocytes, 2 μM substrate, 37° C. The method, then: This assay was used to evaluate the metabolic stability of test articles (TA) following incubation in cryopreserved hepatocytes by monitoring parent drug disappearance via LC/MC. The TA was incubated with 1 million hepatocytes/mL at 2 μM substrate in duplicate. The incubation was carried out at 37° C. with 5% CO2 and saturating humidity. Samples were taken at 0, 1, 2, and 4 hours to monitor the disappearance of TA and a half-life (t1/2) was determined. Table 3 below summarizes the human hepatocyte t1/2 values (hours) collected in the Example.

pEC50, pIC50: −log10 of the molar value.

Sequence of PI3Kδ (O00329 whole entry, the tested form may be a part, canonical isoform): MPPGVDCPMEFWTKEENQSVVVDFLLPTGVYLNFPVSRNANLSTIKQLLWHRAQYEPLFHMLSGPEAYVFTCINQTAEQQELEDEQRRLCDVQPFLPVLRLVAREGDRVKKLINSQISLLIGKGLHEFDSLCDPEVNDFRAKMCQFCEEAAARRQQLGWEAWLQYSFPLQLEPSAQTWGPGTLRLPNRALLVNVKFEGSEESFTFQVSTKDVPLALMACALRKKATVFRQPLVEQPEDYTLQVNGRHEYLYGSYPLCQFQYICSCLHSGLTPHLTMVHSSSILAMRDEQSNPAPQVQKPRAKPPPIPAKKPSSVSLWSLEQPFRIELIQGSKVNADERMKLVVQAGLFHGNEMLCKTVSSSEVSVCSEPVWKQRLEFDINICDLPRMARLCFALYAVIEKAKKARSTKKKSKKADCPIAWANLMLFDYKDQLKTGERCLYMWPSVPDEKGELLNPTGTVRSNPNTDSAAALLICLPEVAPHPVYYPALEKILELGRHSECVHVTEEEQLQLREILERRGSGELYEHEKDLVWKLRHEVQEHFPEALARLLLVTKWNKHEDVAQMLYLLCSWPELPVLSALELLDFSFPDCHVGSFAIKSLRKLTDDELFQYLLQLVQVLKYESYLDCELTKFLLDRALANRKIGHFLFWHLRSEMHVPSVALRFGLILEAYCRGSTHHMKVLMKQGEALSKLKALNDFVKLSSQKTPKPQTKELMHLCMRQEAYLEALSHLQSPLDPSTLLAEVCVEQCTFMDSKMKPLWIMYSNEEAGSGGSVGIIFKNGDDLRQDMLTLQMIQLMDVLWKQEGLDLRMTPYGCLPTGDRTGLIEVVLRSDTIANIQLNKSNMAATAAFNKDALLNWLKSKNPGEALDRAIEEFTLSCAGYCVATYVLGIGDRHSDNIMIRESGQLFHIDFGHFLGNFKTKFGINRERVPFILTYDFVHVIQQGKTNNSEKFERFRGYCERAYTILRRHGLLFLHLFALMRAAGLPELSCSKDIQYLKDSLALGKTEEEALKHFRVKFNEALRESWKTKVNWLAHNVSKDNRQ
Sequence of PI3Kδ (P27986 whole entry partner, the tested form may be a part, canonical isoform): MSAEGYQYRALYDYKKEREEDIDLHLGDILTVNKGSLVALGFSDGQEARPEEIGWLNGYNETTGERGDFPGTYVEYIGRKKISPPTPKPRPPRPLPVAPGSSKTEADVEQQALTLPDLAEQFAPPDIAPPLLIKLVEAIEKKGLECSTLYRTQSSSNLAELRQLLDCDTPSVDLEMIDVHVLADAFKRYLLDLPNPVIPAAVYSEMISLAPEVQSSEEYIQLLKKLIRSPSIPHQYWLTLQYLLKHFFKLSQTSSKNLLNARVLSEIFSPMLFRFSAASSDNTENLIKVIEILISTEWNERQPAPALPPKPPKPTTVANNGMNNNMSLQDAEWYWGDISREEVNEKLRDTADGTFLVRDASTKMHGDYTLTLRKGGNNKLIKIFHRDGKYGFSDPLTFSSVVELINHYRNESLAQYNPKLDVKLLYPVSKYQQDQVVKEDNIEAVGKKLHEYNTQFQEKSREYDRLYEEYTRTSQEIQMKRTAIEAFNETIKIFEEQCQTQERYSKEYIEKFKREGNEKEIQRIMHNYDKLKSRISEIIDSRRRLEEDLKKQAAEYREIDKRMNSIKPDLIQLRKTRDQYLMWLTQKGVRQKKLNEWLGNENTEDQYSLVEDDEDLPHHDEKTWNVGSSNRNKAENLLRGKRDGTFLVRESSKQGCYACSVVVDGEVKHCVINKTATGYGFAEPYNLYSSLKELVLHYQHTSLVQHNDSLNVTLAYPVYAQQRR

Usually pIC50 stands for the IC50 on a negative log10 scale, so that one unit is a factor of ten. The low end stands for a high IC50, the high end for a low IC50. As a reminder, the pEC50 is −log10 of the EC50, conventionally taken in molar units. On to `C[C@H](Nc1nc(N)nc(N)c1C#N)c1nc2cccc(S(C)(=O)=O)c2c(=O)n1-c1cccnc1` [Compound 8, (S)-2,4-diamino-6-(1-(5-(methylsulfonyl)-4-oxo-3-(pyridin-3-yl)-3,4-dihydroquinazolin-2-yl)ethylamino)pyrimidine-5-carbonitrile], for which the pIC50 against PI3Kδ is 8.05. For the same molecule, the pEC50 with basophils (Homo sapiens, class symbol) is below 7.30; in the data set with basophils (Homo sapiens, geometric mean) it was 7.00.

For `Cc1cncc(-n2c([C@H](C)Nc3nc(N)nc(N)c3C#N)nc3cccc(Cl)c3c2=O)c1` [Compound 16, (S)-2,4-diamino-6-(1-(5-chloro-3-(5-methylpyridin-3-yl)-4-oxo-3,4-dihydroquinazolin-2-yl)ethylamino)pyrimidine-5-carbonitrile], the pIC50 on PI3Kδ was 9.00. The pEC50 is above 9.00 in the data set on basophils (Homo sapiens, class symbol) and 9.15 in the data set with basophils (Homo sapiens, geometric mean).

As for `C[C@H](Nc1nc(N)nc(N)c1C#N)c1nc2c(F)ccc(F)c2c(=O)n1-c1cccnc1` [Compound 25, (S)-2,4-diamino-6-(1-(5,8-difluoro-4-oxo-3-(pyridin-3-yl)-3,4-dihydroquinazolin-2-yl)ethylamino)pyrimidine-5-carbonitrile], the pIC50 against PI3Kδ is 8.10. Also, the pEC50 is 7.30 to 8.00 in the data set on basophils (Homo sapiens, class symbol) and 7.96 in the data set on basophils (Homo sapiens, geometric mean).

Turning to `N#Cc1c(N)nc(N)nc1N[C@@H](CC1CC1)c1nc2cccc(Cl)c2c(=O)n1-c1cccnc1` [Compound 4, (S)-2,4-diamino-6-(1-(5-chloro-4-oxo-3-(pyridin-3-yl)-3,4-dihydroquinazolin-2-yl)-2-cyclopropylethylamino)pyrimidine-5-carbonitrile], the pIC50 against PI3Kδ is 8.30. Besides, the pEC50 is 7.30 to 8.00 with basophils (Homo sapiens, class symbol) and 7.66 with basophils (Homo sapiens, geometric mean).

Take `C[C@H](Nc1nc(N)nc(N)c1C#N)c1nc2c(F)ccc(C#N)c2c(=O)n1-c1cccnc1` [Compound 34, (S)-2-(1-((2,6-diamino-5-cyanopyrimidin-4-yl)amino)ethyl)-8-fluoro-4-oxo-3-(pyridin-3-yl)-3,4-dihydroquinazoline-5-carbonitrile]: the pIC50 at PI3Kδ was 7.68. Further, the pEC50 in the data set with basophils (Homo sapiens, class symbol) is 7.30 to 8.00; in the data set on basophils (Homo sapiens, geometric mean), 7.66.

`Cc1ncccc1-n1c([C@H](C)Nc2nc(N)nc(N)c2C#N)nc2cccc(Cl)c2c1=O` (atropisomer, axis not shown) [Compound 38, (S)-2,4-diamino-6-(1-(5-chloro-3-(2-methylpyridin-3-yl)-4-oxo-3,4-dihydroquinazolin-2-yl)ethylamino)pyrimidine-5-carbonitrile] had a pIC50 against PI3Kδ of 7.89. The pEC50 is 8.00 to 9.00 in the data set with basophils (Homo sapiens, class symbol) and 8.05 in the data set with basophils (geometric mean).

Take `C[C@H](Nc1nc(N)nc(N)c1C#N)c1nc2cccc(C#N)c2c(=O)n1-c1cccnc1` [Compound 10, (S)-2-(1-((2,6-diamino-5-cyanopyrimidin-4-yl)amino)ethyl)-4-oxo-3-(pyridin-3-yl)-3,4-dihydroquinazoline-5-carbonitrile]: the pIC50 at PI3Kδ was 8.05. The pEC50 was 7.30 to 8.00 with basophils (Homo sapiens, class symbol) and 7.77 in the data set on basophils (Homo sapiens, geometric mean).

Turning to `Cc1cncc(-n2c([C@@H](Nc3nc(N)nc(N)c3C#N)C3CC3)nc3cccc(Cl)c3c2=O)c1` [Compound 17, (S)-2,4-diamino-6-((5-chloro-3-(5-methylpyridin-3-yl)-4-oxo-3,4-dihydroquinazolin-2-yl)(cyclopropyl)methylamino)pyrimidine-5-carbonitrile], the pIC50 at PI3Kδ was 8.40. The pEC50 in the data set with basophils (Homo sapiens, class symbol) is 8.00 to 9.00; in the data set on basophils (Homo sapiens, geometric mean), 8.30.

Turning to `N#Cc1c(N)nc(N)nc1N[C@H](c1nc2ccc(F)c(Cl)c2c(=O)n1-c1cccnc1)C1CC1` [Compound 37, (S)-2,4-diamino-6-((5-chloro-6-fluoro-4-oxo-3-(pyridin-3-yl)-3,4-dihydroquinazolin-2-yl)(cyclopropyl)methylamino)pyrimidine-5-carbonitrile], at PI3Kδ, the pIC50 is 8.30. In addition, the pEC50 in the data set with basophils (Homo sapiens, class symbol) is 7.30 to 8.00; in the data set with basophils (Homo sapiens, geometric mean), 7.80.

As a reminder, the half-life is the time needed for the level to fall by half in the phase considered. For `Cc1c(F)cncc1-n1c([C@H](C)Nc2nc(N)nc(N)c2C#N)nc2cccc(Cl)c2c1=O` (atropisomer, axis not shown) [Compound 46, (S)-2,4-diamino-6-(1-(5-chloro-3-(5-fluoro-4-methylpyridin-3-yl)-4-oxo-3,4-dihydroquinazolin-2-yl)ethylamino)pyrimidine-5-carbonitrile], the pIC50 at PI3Kδ is 7.42. For the same molecule, the values for the half-life at 2 μM in data set [1] (class symbol) and in data set [1] (Table 3) were 6 to 10 h and 8 h, respectively.

The molecule `Cc1ccncc1-n1c([C@H](C)Nc2nc(N)nc(N)c2C#N)nc2ccc(F)c(Cl)c2c1=O` (atropisomer, axis not shown) [Compound 43, (S)-2,4-diamino-6-(1-(5-chloro-6-fluoro-3-(4-methylpyridin-3-yl)-4-oxo-3,4-dihydroquinazolin-2-yl)ethylamino)pyrimidine-5-carbonitrile] showed a pIC50 against PI3Kδ of 8.40. The pEC50 was 8.00 to 9.00 in the data set with basophils (class symbol) and 8.70 with basophils (geometric mean).

At PI3Kδ, `Cc1ccncc1-n1c([C@H](C)Nc2nc(N)nc(N)c2C#N)nc2cccc(Cl)c2c1=O` (atropisomer, axis not shown) [Compound 40, (S)-2,4-diamino-6-(1-(5-chloro-3-(4-methylpyridin-3-yl)-4-oxo-3,4-dihydroquinazolin-2-yl)ethylamino)pyrimidine-5-carbonitrile] had a pIC50 of 8.05. Further, the pEC50 in the data set on basophils (Homo sapiens, class symbol) is 8.00 to 9.00; with basophils (Homo sapiens, geometric mean), 8.15.

On to `CC[C@H](Nc1nc(N)nc(N)c1C#N)c1nc2c(F)ccc(C#N)c2c(=O)n1-c1cccnc1` [Compound 35, (S)-2-(1-((2,6-diamino-5-cyanopyrimidin-4-yl)amino)propyl)-8-fluoro-4-oxo-3-(pyridin-3-yl)-3,4-dihydroquinazoline-5-carbonitrile], for which the pIC50 at PI3Kδ was 7.46. For the same molecule, the pEC50 with basophils (Homo sapiens, class symbol) was below 7.30; in the data set with basophils (Homo sapiens, geometric mean), 7.21.

For `C[C@H](Nc1nc(N)nc(N)c1C#N)c1nc2cccc(Cl)c2c(=O)n1-c1cncc(C(F)(F)F)c1` [Compound 18, (S)-2,4-diamino-6-(1-(5-chloro-4-oxo-3-(5-(trifluoromethyl)pyridin-3-yl)-3,4-dihydroquinazolin-2-yl)ethylamino)pyrimidine-5-carbonitrile], the pIC50 against PI3Kδ is 7.74. The pEC50 in the data set with basophils (Homo sapiens, class symbol) is 7.30 to 8.00; in the data set on basophils (Homo sapiens, geometric mean) it was 7.66.

`Cc1ccncc1-n1c([C@H](C)Nc2nc(N)nc(N)c2C#N)nc2ccc(F)c(Cl)c2c1=O` (atropisomer, axis not shown) [Compound 42, (S)-2,4-diamino-6-(1-(5-chloro-6-fluoro-3-(4-methylpyridin-3-yl)-4-oxo-3,4-dihydroquinazolin-2-yl)ethylamino)pyrimidine-5-carbonitrile] had a negative-log IC50 (pIC50) at PI3Kδ of 7.57. In addition, the pEC50 is 8.00 to 9.00 in the data set on basophils (Homo sapiens, class symbol) and 8.10 in the data set with basophils (geometric mean).
